Among the data in US5489591A, “S-triazine derivative and remedy for estrogen-dependent disease containing said derivative as effective component” (Zenyaku Kogyo Kabushiki Kaisha, priority 1992, dated 1996) are IC50 and LD50 values, retold here.

Data set [1] has as its target T1, Aromatase (Homo sapiens, UniProt P11511).
T1 construct: human placenta microsome; from tissue; host or cells: human placenta microsomes
T1 sequence (P11511 1-503): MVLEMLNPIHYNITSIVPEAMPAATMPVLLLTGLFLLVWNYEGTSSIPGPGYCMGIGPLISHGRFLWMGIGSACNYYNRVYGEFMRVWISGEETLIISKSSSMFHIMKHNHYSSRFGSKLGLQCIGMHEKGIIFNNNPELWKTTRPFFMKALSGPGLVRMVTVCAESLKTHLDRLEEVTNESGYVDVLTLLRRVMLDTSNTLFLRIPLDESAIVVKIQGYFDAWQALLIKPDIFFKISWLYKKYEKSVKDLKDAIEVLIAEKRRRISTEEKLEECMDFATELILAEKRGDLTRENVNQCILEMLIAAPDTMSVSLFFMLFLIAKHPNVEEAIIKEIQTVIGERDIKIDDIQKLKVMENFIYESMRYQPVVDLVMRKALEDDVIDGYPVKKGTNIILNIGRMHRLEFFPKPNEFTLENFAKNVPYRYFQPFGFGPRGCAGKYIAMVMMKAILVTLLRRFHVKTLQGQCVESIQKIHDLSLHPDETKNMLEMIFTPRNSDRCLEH
The data set is described as follows: Aromatase inhibitory activity (Pharmacological Test 1, human placenta microsome). Format: biochemical. The settings on record: substrate 4-androsten-3,17-dione 1.0×10^-6 M, read-out: AI-IC50. Here is the method: Aromatase inhibitory activity was determined according to the method of E. A. Thompson and P. K. Siiteri [J. Biol. Chem., 249, 5364-5372 (1974)]. The each compound to be tested was added to a reaction vial containing human placenta microsome, [1β,2 β-^3 H]4-androsten-3,17-dione (3.3 kBq/500 pmol) and NADPH. […] The obtained [^3 H]H2 O was measured by a liquid scintillation counter. The measured quantity of [3H]H20 was used to determine aromatase activity, and was compared with the activity when incubated without inhibitor to calculate inhibition ratio (%).

Data set [2] addresses T2, cholesterol side-chain cleaving enzyme (Sus scrofa, UniProt P10612).
T2 construct: porcine adrenal mitochondria; from tissue; host or cells: porcine adrenal mitochondria
T2 sequence (P10612 40-520): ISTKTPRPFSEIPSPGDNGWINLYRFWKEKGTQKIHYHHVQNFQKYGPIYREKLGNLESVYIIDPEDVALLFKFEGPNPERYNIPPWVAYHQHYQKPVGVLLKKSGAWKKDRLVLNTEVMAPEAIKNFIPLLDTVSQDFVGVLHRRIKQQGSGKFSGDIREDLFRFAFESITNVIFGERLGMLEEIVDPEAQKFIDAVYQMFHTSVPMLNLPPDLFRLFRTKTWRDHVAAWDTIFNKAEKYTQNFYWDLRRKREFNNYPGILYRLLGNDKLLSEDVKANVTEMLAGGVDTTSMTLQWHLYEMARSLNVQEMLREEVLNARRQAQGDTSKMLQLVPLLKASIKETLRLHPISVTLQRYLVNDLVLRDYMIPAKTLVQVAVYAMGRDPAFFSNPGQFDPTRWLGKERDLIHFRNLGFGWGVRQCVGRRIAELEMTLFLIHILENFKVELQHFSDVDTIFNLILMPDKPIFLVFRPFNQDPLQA
The data set is described as follows: Inhibitory activity against cholesterol side-chain cleaving enzyme (Pharmacological Test 2, porcine adrenal mitochondria). The class given is biochemical. The settings on record: substrate 5-cholesten-3β-ol 5.0×10^-6 M, read-out: SCC-IC50. How it is done: Inhibitory activity against cholesterol side-chain cleaving enzyme was determined according to the method of M. Shikita and P. F. Hall [Proc. Nat. […] Briefly, the each compound to be tested was added to a reaction vial containing porcine adrenal mitochondria, [4-^14 C]5-cholesten-3β-ol (250 Bq/5 nmol) and NADPH. […] These were separated by extracting the reaction mixture with methylene-dichloride followed by purifying with thin-layer chromatography. Substrate (5-cholesten-3β-ol) and reaction product (3β-hydroxypregn-5-en-20-one) were respectively measured by a liquid scintillation counter. The measured quantity of 3β-hydroxypregn-5-en-20-one was used to determine cholesterol side-chain cleaving activity which was compared with the activity when incubated without inhibitor to calculate inhibition ratio (%).

The nature of data set [3]: Acute toxicity in ICR female mice, oral (Pharmacological Test 4). The note with it: mouse, in vivo, suspended in distilled water with 1% hydroxypropylcellulose, observation for fourteen days. From the text: The acute toxicity of the compounds of the present invention was examined by the following method.

Where only a bound is given, the exact number is not on record here.

As for `c1ccc(C2CCN(c3nc(N4CCOCC4)nc(-n4ccnc4)n3)CC2)cc1` [Compound 38, 2-(1-Imidazolyl)-4-morpholino-6-(4-phenylpiperidino)-1,3,5-triazine], the values for the IC50 in data set [1] and in data set [2] were 0.038 µM and 23 µM, respectively. In addition, the LD50 at 336 h in data set [3] was greater than 400 mg/kg.

Regarding `N#CC1(c2ccccc2)CCN(c2nc(N3CCOCC3)nc(-n3ccnc3)n2)CC1` [Compound 13, 2-(4-Cyano-4-phenylpiperidino)-4-(1-imidazolyl)-6-morpholino-1,3,5-triazine], the IC50 in data set [1] came to 0.009 µM; in data set [2] it was 22 µM. The compound also came in with an LD50 at 336 h in data set [3] greater than 400 mg/kg.

As to `c1cn(-c2nc(N3CCOCC3)nc(N3CCSCC3)n2)cn1` [Compound 37, 2-(1-Imidazolyl)-4-morpholino-6-thiomorpholino-1,3,5-triazine], the IC50 is 0.011 µM in data set [1] and greater than 100 µM in data set [2]. This compound also showed an LD50 at 336 h in data set [3] greater than 400 mg/kg.

Turning to `c1cn(-c2nc(N3CCOCC3)nc(N3CCSC3)n2)cn1` [Compound 7, 2-(1-Imidazolyl)-4-morpholino-6-(3-thiazolidinyl)-1,3,5-triazine], the IC50 in data set [1] was 0.0066 µM; in data set [2], 72 µM. This compound showed an LD50 at 336 h in data set [3] of 300 to 400 mg/kg.

With `c1ccc(C2CCN(c3nc(-n4ccnc4)nc(-n4ccnc4)n3)CC2)cc1` [Compound 28, 2,4-Bis(1-imidazolyl)-6-(4-phenylpiperidino)-1,3,5-triazine], the IC50 in data set [1] came to 0.062 µM; in data set [2] it was 9.5 µM.

Take `Cc1ncn(-c2nc(N(C)C)nc(-n3ccnc3)n2)c1C` [Compound 5, 2-(1-Imidazolyl)-4-dimethylamino-6-(4,5-dimethyl-1-imidazolyl)-1,3,5-triazine]: the IC50 is 0.2 µM in data set [1] and greater than 100 µM in data set [2].

On to `c1cn(-c2nc(N3CCOCC3)nc(N3CCOCC3)n2)cn1` [Compound 16, 2-(1-Imidazolyl)-4,6-dimorpholino-1,3,5-triazine], for which the IC50 in data set [1] was 0.0053 µM; in data set [2] it was greater than 100 µM. The compound further came in with an LD50 at 336 h in data set [3] of 200 to 300 mg/kg.

Regarding `CC1CC(C)CN(c2nc(N3CCOCC3)nc(-n3ccnc3)n2)C1` (stereo not drawn) [Compound 11, 2-(1-Imidazolyl)-4-(3,5-dimethylpiperidino)-6-morpholino-1,3,5-triazine], the IC50 in data set [1] worked out at 0.011 µM; in data set [2], 19 µM.

`Fc1ccc(N2CCN(c3nc(N4CCOCC4)nc(-n4ccnc4)n3)CC2)cc1` [Compound 43, 2-[4-(4-Fluorophenyl)-1-piperazinyl]-4-(1-imidazolyl)-6-morpholino-1,3,5-triazine]: the IC50 was 0.02 µM in data set [1] and greater than 100 µM in data set [2].

As for `c1cn(-c2nc(N3CCCCC3)nc(N3CCCCC3)n2)cn1` [Compound 18, 2-(1-Imidazolyl)-4,6-dipiperidino-1,3,5-triazine], the IC50 in data set [1] is 0.31 µM; in data set [2], greater than 100 µM.

`CCCCN(CCCC)c1nc(-n2ccnc2)nc(-n2ccnc2)n1` [Compound 36, 2-(Di-n-butylamino)-4,6-bis(1-imidazolyl)-1,3,5-triazine]: the IC50 in data set [1] was 0.014 µM; in data set [2], 12 µM.

As to `CC(C)(C)OC(=O)C1CCCN1c1nc(N2CCOCC2)nc(-n2ccnc2)n1` (stereo not drawn) [Compound 41, 2-(2-tert-Butoxycarbonyl-1-pyrrolidinyl)-4-(1-imidazolyl)-6-morpholino-1,3,5-triazine], the IC50 in data set [1] was 0.037 µM; in data set [2] it was greater than 100 µM.

`OC1CCN(c2nc(N3CCOCC3)nc(-n3ccnc3)n2)CC1` [Compound 46, 2-(4-Hydroxypiperidino)-4-(1-imidazolyl)-6-morpholino-1,3,5-triazine]: the IC50 in data set [1] came to 0.053 µM; in data set [2], 100 µM.

In the case of `c1cn(-c2nc(N3CCOCC3)nc(N3CCC4(CC3)OCCO4)n2)cn1` [Compound 12, 2-(4,4-Ethylenedioxypiperidino)-4-(1-imidazolyl)-6-morpholino-1,3,5-triazine], the results for the IC50 in data set [1] and in data set [2] were 0.024 µM and greater than 100 µM, respectively.

For the compound `CN(C)c1nc(-n2ccnc2)nc(-n2ccnc2)n1` [Compound 24, 2,4-Bis(1-imidazolyl)-6-dimethylamino-1,3,5-triazine], the IC50 in data set [1] came out at 0.55 µM; in data set [2], 80 µM.

As for `c1cn(-c2nc(N3CCCC3)nc(-n3ccnc3)n2)cn1` [Compound 26, 2,4-Bis(1-imidazolyl)-6-(1-pyrrolidinyl)-1,3,5-triazine], the IC50 in data set [1] is 0.062 µM; in data set [2], greater than 100 µM.

As to `CC1CN1c1nc(N2CCOCC2)nc(-n2ccnc2)n1` (stereo not drawn) [Compound 42, 2-(1-Imidazolyl)-4-(2-methyl-1-aziridinyl)-6-morpholino-1,3,5-triazine], the results for the IC50 in data set [1] and in data set [2] were 0.057 µM and greater than 100 µM, respectively.

Take `CN(c1ccc(Cl)cc1)c1nc(N2CCOCC2)nc(-n2ccnc2)n1` [Compound 55, 2-[N-(4-Chlorophenyl)-N-methylamino]-4-(1-imidazolyl)-6-morpholino-1,3,5-triazine]: the IC50 in data set [1] was found to be 0.0077 µM; in data set [2], 26 µM. The compound further gave an LD50 at 336 h in data set [3] greater than 400 mg/kg.
